From article PMC10511752, “Natural product-inspired synthesis of coumarin–chalcone hybrids as potential anti-breast cancer agents” (Frontiers in Pharmacology, 2023)

Experiments:
tubulin = test system: tubulin; design: method as in Miller et al., 1997; conditions: ref Miller et al., 1997; read-out: IC50, inhibition of polymerization of tubulin; cited from earlier work
[1] = test system: Ishikawa (endometrial cancer) cells; experiment: MTT cell proliferation assay, Ishikawa; format: cell-based; conditions: Homo sapiens, 48 h, read-out: IC50 values (mean ± SEM) Ishikawa
Experimental: (§1) We conducted an in vitro MTT assay to evaluate the anti-cancer activity of the synthesized neo-tanshinlactone–chalcone hybrid compounds, 26–37, against four human cancer cell lines, namely, MCF-7 (breast cancer), MDA-MB-231 (breast cancer), Ishikawa (endometrial cancer), and HeLa (cervical cancer). The toxicity of the hybrid molecules on the normal human embryonic kidney cell line HEK-293 was also evaluated.
MCF-7, MDA-MB231, and HEK293 cell lines were purchased from ATCC (Manassas, VA, United States). Ishikawa cell lines were obtained from the European Collection of Cell Cultures. They were maintained in Dulbecco’s modified Eagle medium (DMEM) supplemented with 10% fetal bovine serum (FBS). Cells were cultured at 37°C and 5% CO2. Before the experiments, cells were cultured in phenol red-free DMEM supplemented with 10% charcoal stripped fetal bovine serum.
(§2) The synthesized hybrid compounds were tested for their anti-cancer activity using the MTT reduction assay on 2.5 × 10^3 cells per well that were seeded in 100 µL DMEM supplemented with 10% FBS in each well of 96-well microculture plates. After seeding, the cells were incubated for 24 h at 37°C in a CO2 incubator. The required concentrations of the compounds were achieved by diluting the solutions in the culture medium. The media was removed from the wells after 48 h, and 100 µL of MTT (0.5 mg/mL) was added to each well. The plates were then incubated for an additional 3 h. After carefully removing the supernatant from each well, the formazan crystals were dissolved in 100 µL of DMSO. The absorbance was then recorded at a wavelength of 540 nm ([Saquib et al., 2021]; [Gupta et al., 2022]; [Iqbal et al., 2023])

[2] = test system: HeLa (cervical cancer) cells; experiment: MTT cell proliferation assay, HeLa; format: cell-based; conditions: Homo sapiens, 48 h, read-out: IC50 values (mean ± SEM) HeLa
Experimental: as §1, §2

[3] = test system: MDA-MB-231 (breast cancer) cells; experiment: MTT cell proliferation assay, MDA-MB-231; format: cell-based; conditions: Homo sapiens, MDA-MB-231 (ER -ve), 48 h, read-out: IC50 values (mean ± SEM) MDA-MB-231
Experimental: (§3) MCF-7, MDA-MB231, and HEK293 cell lines were purchased from ATCC (Manassas, VA, United States). […] They were maintained in Dulbecco’s modified Eagle medium (DMEM) supplemented with 10% fetal bovine serum (FBS). Cells were cultured at 37°C and 5% CO2. Before the experiments, cells were cultured in phenol red-free DMEM supplemented with 10% charcoal stripped fetal bovine serum.

[4] = test system: normal human embryonic kidney cell line HEK-293; experiment: MTT assay, toxicity on normal cell line HEK-293; format: cell-based; conditions: HEK293, normal HEK-293 cells (toxicity), 48 h, read-out: IC50 values (mean ± SEM) HEK-293
Experimental: as §3

[5] = test system: MCF-7 (breast cancer) cells; experiment: MTT cell proliferation assay, MCF-7; format: cell-based; conditions: Homo sapiens, MCF7, MCF-7 (ER +ve), 48 h, read-out: IC50 values (mean ± SEM) MCF-7
Experimental: as §3

Row | Compound | IC50 (tubulin) | IC50 [1] | IC50 [2] | IC50 [3] | IC50 [4] | IC50 [5] | melting point
1 | COc1cc2c(cc1O)CC[C@@H]1[C@@H]2CC[C@]2(C)[C@@H](O)CC[C@@H]12 [2-methoxyestradiol (2-ME), 2-methoxyestradiol] | 14.2 µM | – | – | – | – | – | –
2 | O=C(/C=C/c1cc(=O)oc2c1ccc1ccccc12)c1ccc(Cl)cc1 [Compound 34] | – | > 20 µM | > 20 µM | > 20 µM | > 20 µM | > 20 µM | –
3 | COc1cccc2c1ccc1c(/C=C/C(=O)c3ccccc3)cc(=O)oc12 [Compound 29, (E)-7-Methoxy-4-(3-oxo-3-phenylprop-1-en-1-yl)-2H-benzo[h]chromen-2-one] | – | > 20 µM | > 20 µM | > 20 µM | > 20 µM | > 20 µM | 180 to 182 °C
4 | COc1cc2c(ccc1=O)[C@H]1CC[C@]3(C)[C@@H](O)CC[C@H]3[C@@H]1CC2 [2-Methoxyestradiol–colchicine hybrid A] | 2.1 µM | – | – | – | – | – | –
5 | COc1ccc(C(=O)/C=C/c2cc(=O)oc3c2ccc2c(OC)cccc23)cc1 [Compound 28, (E)-7-Methoxy-4-(3-(4-methoxyphenyl)-3-oxoprop-1-enyl)-2H-benzo[h]chromen-2-one] | – | > 20 µM | > 20 µM | > 20 µM | > 20 µM | 18.6 ± 2.3 µM | 236 to 237 °C
6 | O=C(/C=C/c1cc(=O)oc2c1ccc1ccccc12)c1ccccc1 [Compound 32, (E)-4-(3-Oxo-3-phenylprop-1-enyl)-2H-benzo[h]chromen-2-one] | – | > 20 µM | > 20 µM | > 20 µM | > 20 µM | > 20 µM | 245 to 246 °C
7 | COc1cc(C(=O)/C=C/c2cc(=O)oc3c2ccc2ccccc23)cc(OC)c1OC [Compound 31, (E)-4-(3-Oxo-3-(3,4,5-trimethoxyphenyl)prop-1-enyl)-2H-benzo[h]chromen-2-one] | – | > 20 µM | > 20 µM | 15.7 ± 1.01 µM | > 20 µM | 14.4 ± 1.68 µM | –
8 | COc1ccc(C(=O)/C=C/c2cc(=O)oc3c2ccc2ccccc23)cc1 [Compound 27, (E)-4-(3-(4-Methoxyphenyl)-3-oxoprop-1-enyl)-2H-benzo[h]chromen-2-one] | – | 17.4 ± 2.72 µM | > 20 µM | > 20 µM | > 20 µM | > 20 µM | –
9 | COc1cc(OC)cc(C(=O)/C=C/c2cc(=O)oc3c2ccc2ccccc23)c1 [Compound 26, (E)-4-(3-(3,5-Dimethoxyphenyl)-3-oxoprop-1-en-1-yl)-2H-benzo[h]chromen-2-one] | – | > 20 µM | > 20 µM | 16.6 ± 1.25 µM | > 20 µM | 17.2 ± 1.75 µM | 272 to 273 °C
10 | O=C(/C=C/c1cc(=O)oc2c1ccc1ccccc12)c1ccc(Cl)c(Cl)c1 [Compound 36] | – | 19.2 ± 3.12 µM | 16.8 ± 3.14 µM | > 20 µM | > 20 µM | > 20 µM | –
11 | COc1cccc2c1ccc1c(/C=C/C(=O)c3ccc(Cl)c(Cl)c3)cc(=O)oc12 [Compound 37] | – | 18.6 ± 2.56 µM | 17.2 ± 2.88 µM | > 20 µM | > 20 µM | > 20 µM | –
12 | COc1cc(OC)cc(C(=O)/C=C/c2cc(=O)oc3c2ccc2c(OC)cccc23)c1 [Compound 30, (E)-4-(3-(3,5-Dimethoxyphenyl)-3-oxoprop-1-en-1-yl)-7-methoxy-2H-benzo[h]chromen-2-one] | – | – | – | 8.5 ± 1.12 µM | > 20 µM | 6.8 ± 1.48 µM | –
13 | COc1cccc2c1ccc1c(/C=C/C(=O)c3ccc(Cl)cc3)cc(=O)oc12 [Compound 35] | – | > 20 µM | > 20 µM | > 20 µM | > 20 µM | > 20 µM | –
14 | COc1cc(C(=O)/C=C/c2cc(=O)oc3c2ccc2c(OC)cccc23)cc(OC)c1OC [Compound 33, (E)-7-Methoxy-4-(3-oxo-3-(3,4,5-trimethoxyphenyl)prop-1-enyl)-2H-benzo[h] chromen-2-one] | – | > 20 µM | > 20 µM | > 20 µM | > 20 µM | 16.3 ± 2.3 µM | > 260 °C
